# According to patent US20250058002A1, “ELECTROCHEMICAL INHIBITION OF REDOX ACTIVE BACTERIA AND RELATED DEVICES, METHODS AND SYSTEMS” (priority 2023, published 2025):
# Entries after “also recorded” stand apart in the source; their conditions may differ.
# Test system: P. aeruginosa PA14 biofilms
# Assay: Anoxic survival (CFU) of electrode-attached wild type biofilms at poised potential with sub-MIC antibiotics
# Type: cell-based, P. aeruginosa UCBPP-PA14
# Settings: +100 mV; 10 μg/mL colistin vs no antibiotic
# Description: (§1) Electrochemical reactors and biofilm growth. Double-jacketed electrochemical reactors (Pine Instruments, 250 ml, wide center port 29/26) were used with ITO-coated 0.2 mm thick boro-aluminosilicate glass slides (Delta Technologies, 24×60 mm, Rs=7-10Ω) as working electrodes, freshly sanded graphite rods (Alfa Aesar) as counter electrodes, and Ag/AgCl in 3M KCl reference electrodes (BASi). Silver epoxy (Electron Microscopy Sciences) was used to make electrical connection between insulated wire ([…]) and working electrode and was insulated using 5 Minute® expoxy (Devcon). Working electrodes were assembled within 5 hours of use. Reactors were sterilized by autoclaving without reference or working electrodes, which were sterilized by submerging in 10% bleach for 5 minutes or 30 seconds, respectively, and rinsed in sterile water. Individual mid-log liquid cultures (OD600 0.45-0.55) were used to inoculate sterile reactors containing 140 ml of MM (described above) with 0.1% (vol/vol) for each biological replicate. Antibiotics were not added at this point. Working electrodes were poised at either open circuit, +100 mV, or −400 mV vs. Ag/AgCl (+310 mV and −190 mV vs the standard hydrogen electrode, respectively). Reactors were aerated using an aquarium pump with a 0.2 μm filter (Thermo Scientific) and heated to 31° C. using a circulating water bath (Haake A 25, Thermo Scientific). Fresh medium was exchanged every 24 hours for 5 days. After 5 days of aerobic growth, working electrode-attached biofilms were rinsed in sterile medium to remove planktonic cells and transferred to sterile reactors with fresh MM previously flushed for 2 hours with N2 ultra-high purity gas (NRL supply store). For antibiotic exposure experiments, antibiotics were added to sterile media before flushing with N2. For PYO-addition experiments, 10 μM PYO (Cayman Chemical) was added to in the MM before flushing with N2. Working electrodes were poised to their corresponding potential and biofilms were incubated for an additional 72 hours under N2 flushing at 31° C.
# Biofilm harvesting and processing. After 72 hours of incubation under anoxic conditions, electrode-attached biofilms were rinsed in sterile media. The biofilms within the bottom 3.12 cm^2 of each working electrode were scraped off using a cell scraper (Sarstedt) and resuspended in antibiotic-free MM. Serial dilutions were prepared in sterile antibiotic-free MM and plated on antibiotic-free LB. The rest of the electrode-attached biofilms were incubated at room temperature in freshly-made 2 μM TOTO-1 and 10 μM SYTO-60 (Invitrogen) in MM for 15 minutes and rinsed 2× in sterile MM for 15 minutes. Imaging was done with an upright Zeiss LSM 800 microscope with Airyscan and a 40× oil immersion lens. SYTO-60 was excited with a 561 nm; 0.20% laser and emission was recorded from 580-700 nm. TOTO-1 was excited with a 488 nm; 0.20% laser and emission was recorded from 490 to 580 nm.
# In order to test the effect of antibiotic in combination with application of a difference in voltage to P. aenuginosa, sub-MICs of gentamicin, meropenem, ciprofloxacin, and colistin were added to anoxic survival reactors set up as described in Examples 1 and 2.
row,Molecule,decrease in CFUs under PYO-oxidative conditions compared with nontreated biofilms [×]
1,colistin,10

# Same assay, conditions: wild type biofilms, 72 h anoxic, −400 mV vs Ag/AgCl, n=3; 4 μg/mL gentamicin, 1 μg/mL meropenem, 4 μg/mL ciprofloxacin
row,Molecule,"CFU/cm^2 ± SE, −400 mV (PYO-reductive conditions) [CFU/cm^2]"
1,gentamicin,21.4±10.7

# Same assay, conditions: −400 mV vs Ag/AgCl, anoxic, sub-MIC antibiotic
row,Molecule,effect on wild type biofilms under PYO-reductive conditions (in words)
1,colistin,did not show an additive effect
2,gentamicin,almost fully eradicated WT biofilms; also recorded: almost completely eradicated wild type biofilms

# Same assay, conditions: −400 mV vs OC; 1 μg/mL meropenem or 4 μg/mL ciprofloxacin
row,Molecule,decrease in cell survival under PYO-reductive conditions compared with OC [×]
1,O=C(O)c1cn(C2CC2)c2cc(N3CCNCC3)c(F)cc2c1=O [ciprofloxacin],~100
2,C[C@@H](O)[C@H]1C(=O)N2C(C(=O)O)=C(S[C@@H]3CN[C@H](C(=O)N(C)C)C3)[C@H](C)[C@H]12 [meropenem],~100

# Test system: not listed separately
# Assay: Midpoint potential E1/2 by voltammetry vs Ag/AgCl (3M KCl)
# Type: physicochemical
# Settings: aqueous environment at pH7
# Description: The purified redox-active molecule can be dissolved in aqueous solution at appropriate concentration in the presence of supporting electrolyte and buffer to select the pH of measurement. For example, the redox-active molecule can be dissolved in 10 μM-10 mM concentrations in distilled, deionized water (DDW). The supporting electrolyte can be a salt such as NaCl or KCl at 0.01-0.5 M concentrations, for example, dissolved in DDW. The buffer can be 10 mM ammonium acetate/3-(N-morpholino)propanesulfonic acid at pH 7, or phosphate-buffered saline (PBS) at pH 7.4, or sodium acetate buffer at pH 5, or di-sodium hydrogen phosphate/potassium dihydrogen phosphate at pH 9, or boric acid/citric acid/trisodium phosphate for a wide range of pH values, for example.
# Voltammetric methods are then used to characterize the electrochemical behavior of the redox-active molecule in such solution, with a potentiostat such as a Gamry PC4-300, using a three-electrode setup with working electrode (glassy carbon, or platinum, or gold), counter electrode (platinum wire) and reference electrode (Ag/AgCl (3M KCl), or SCE, or NHE; values are reported relative to Ag/AgCl (3M KCl) which has potential +197 mV vs. NHE at 298K).
# For example, cyclic voltammetry may be used. In a cyclic voltammetry experiment phenazines will show a peak on the cathodic sweep (denoted Epc) corresponding to the reduction of the redox molecule.
# The reverse, anodic sweep will show a peak (denoted Epa) corresponding to the re-oxidation of the redox molecule. If the electrode reaction is diffusion-controlled and reversible, the cathodic and anodic peak currents will be equal in area, and the mid-point between these peaks may be taken as the formal reduction potential of the redox molecule under the experimental conditions used. This value can interchangeably be referred to as the “midpoint potential” or “mid-peak potential”, denoted E1/2.
# PYO was purified from aerobic bacterial cultures and was dissolved in 0.1 M KCl aqueous solution buffered with 10 mM ammonium acetate-3-(N-morpholino)propanesulfonic acid (5 mM each, pH 7) to yield a stock solution concentration of 829 μM PYO. Electrochemical measurements were performed with a Gamry PC4-300 potentiostat. A stationary gold disk electrode (BASi) was used as the working electrode, an Ag/AgCl electrode (RE-51, BASi) as the reference, and a straight platinum wire (BASi) was the counter electrode. Scans were performed between 20 and 500 mV/s in the potential range of around E1/2 (+/−300 mV), at 298 K.
# As described in en.wikipedia.org/wiki/Nernst_equation, the Nernst equation relates E1/2 measured at pH 7 to the E1/2 at a different pH by:
# [formula] • where E1/2 is in V • h is the number of protons transferred in the electrochemical reaction • e is the number of electrons transferred in the electrochemical reaction
row,Molecule,midpoint potential vs Ag/AgCl [mV]
1,NAD/NADH,−600

# Same assay, conditions: pH 5; Example 15 table
row,Molecule,E1/2 (vs. Ag/AgCl (3M KCl))/mV [mV]
1,"Oc1cccc2nc3ccccc3nc12 [1-Hydroxyphenazine (1-OHPHZ), 1-Hydroxyphenazine]",−254
2,"O=C(O)c1cccc2nc3ccccc3nc12 [Phenazine-1-carboxylate (PCA), Phenazine-1-carboxylate]",−185
3,"NC(=O)c1cccc2nc3ccccc3nc12 [XXV, phenazine-1-carboxamide]",−205

# Same assay, conditions: pH 6; Example 15 table
row,Molecule,E1/2 (vs. Ag/AgCl (3M KCl))/mV [mV]
1,"Oc1cccc2nc3ccccc3nc12 [1-Hydroxyphenazine (1-OHPHZ), 1-Hydroxyphenazine]",−323
2,"O=C(O)c1cccc2nc3ccccc3nc12 [Phenazine-1-carboxylate (PCA), Phenazine-1-carboxylate]",−257
3,"NC(=O)c1cccc2nc3ccccc3nc12 [XXV, phenazine-1-carboxamide]",−278

# Same assay, conditions: pH 7; Example 15 table
row,Molecule,E1/2 (vs. Ag/AgCl (3M KCl))/mV [mV]
1,C[n+]1c2ccccc2nc2c(C(=O)O)cccc21,0
2,O=C(O)c1cccc2nc3c(C(=O)O)cccc3nc12,0
3,"Oc1cccc2nc3ccccc3nc12 [1-Hydroxyphenazine (1-OHPHZ), 1-Hydroxyphenazine]",−371
4,"O=C(O)c1cccc2nc3ccccc3nc12 [Phenazine-1-carboxylate (PCA), Phenazine-1-carboxylate]",−313
5,"NC(=O)c1cccc2nc3ccccc3nc12 [XXV, phenazine-1-carboxamide]",−337

# Same assay, conditions: pH 8; Example 15 table
row,Molecule,E1/2 (vs. Ag/AgCl (3M KCl))/mV [mV]
1,"Oc1cccc2nc3ccccc3nc12 [1-Hydroxyphenazine (1-OHPHZ), 1-Hydroxyphenazine]",−442

# Test system: not given
# Assay: not given
# Settings: vs NHE at pH7; cited from earlier work
row,Molecule,Redox potentials E (mV)
1,NAD/NADH,−320

# Test system: PA14
# Assay: Redox cycles over 7 days and support of survival (Table 4)
# Type: cell-based, P. aeruginosa
# Settings: not given
# Excerpt: (§2) Phenazines and other redox active compound in the sense of the disclosure can be further characterized by various electrical properties such as a standard electrode potential E° vs. NHE of −500 mV to 500 mV and other properties such as number of redox cycle over a certain period of time (e.g. number of days) as ability to support survival and susceptibility to reduction by enzymes and/or bacterial strains.
row,Molecule,Support survival?
1,"Oc1cccc2nc3ccccc3nc12 [1-Hydroxyphenazine (1-OHPHZ), 1-Hydroxyphenazine]",Yes
2,"O=C(O)c1cccc2nc3ccccc3nc12 [Phenazine-1-carboxylate (PCA), Phenazine-1-carboxylate]",Yes

# Same assay, conditions: over 7 days
row,Molecule,# of Redox cycles over 7 days
1,"Oc1cccc2nc3ccccc3nc12 [1-Hydroxyphenazine (1-OHPHZ), 1-Hydroxyphenazine]",14
2,"O=C(O)c1cccc2nc3ccccc3nc12 [Phenazine-1-carboxylate (PCA), Phenazine-1-carboxylate]",22

# Test system: not given
# Assay: not given
# Settings: pH 5; from Wang and Newman (2008); cited from earlier work
row,Molecule,E1/2 (vs. Ag/AgCl (3M KCl))/mV [mV]
1,"Oc1cccc2nc3ccccc3nc12 [1-Hydroxyphenazine (1-OHPHZ), 1-Hydroxyphenazine]",−254
2,"O=C(O)c1cccc2nc3ccccc3nc12 [Phenazine-1-carboxylate (PCA), Phenazine-1-carboxylate]",−185
3,"NC(=O)c1cccc2nc3ccccc3nc12 [XXV, phenazine-1-carboxamide]",−205

# Same assay, conditions: pH 6; from Wang and Newman (2008); cited from earlier work
row,Molecule,E1/2 (vs. Ag/AgCl (3M KCl))/mV [mV]
1,"Oc1cccc2nc3ccccc3nc12 [1-Hydroxyphenazine (1-OHPHZ), 1-Hydroxyphenazine]",−323
2,"O=C(O)c1cccc2nc3ccccc3nc12 [Phenazine-1-carboxylate (PCA), Phenazine-1-carboxylate]",−257
3,"NC(=O)c1cccc2nc3ccccc3nc12 [XXV, phenazine-1-carboxamide]",−278

# Same assay, conditions: pH 7; from Wang and Newman (2008); cited from earlier work
row,Molecule,E1/2 (vs. Ag/AgCl (3M KCl))/mV [mV]
1,"Oc1cccc2nc3ccccc3nc12 [1-Hydroxyphenazine (1-OHPHZ), 1-Hydroxyphenazine]",−371
2,"O=C(O)c1cccc2nc3ccccc3nc12 [Phenazine-1-carboxylate (PCA), Phenazine-1-carboxylate]",−313
3,"NC(=O)c1cccc2nc3ccccc3nc12 [XXV, phenazine-1-carboxamide]",−337

# Same assay, conditions: pH 8; from Wang and Newman (2008); cited from earlier work
row,Molecule,E1/2 (vs. Ag/AgCl (3M KCl))/mV [mV]
1,"Oc1cccc2nc3ccccc3nc12 [1-Hydroxyphenazine (1-OHPHZ), 1-Hydroxyphenazine]",−442

# Test system: not given
# Assay: not given
# Settings: oxidized form; literature values (footnotes a, c, d); cited from earlier work
row,Molecule,E0' (vs. NHE) (mV)
1,"Oc1cccc2nc3ccccc3nc12 [1-Hydroxyphenazine (1-OHPHZ), 1-Hydroxyphenazine]",−174^a mV
2,"O=C(O)c1cccc2nc3ccccc3nc12 [Phenazine-1-carboxylate (PCA), Phenazine-1-carboxylate]",−114^a mV

# Test system: Δphz* biofilms
# Assay: Anoxic survival (CFU) of electrode-attached phenazine-deficient biofilms at poised potential
# Type: cell-based, P. aeruginosa UCBPP-PA14; Δphz*
# Settings: 4 μg/mL gentamicin, −400 mV, absence of phenazines
# Description: as §1, with “For PYO-addition experiments, 10 μM PYO (Cayman Chemical) was added to in the MM before flushing with N2. Working electrodes were poised to their corresponding potential and biofilms were incubated for an additional 72 hours under N2 flushing at 31° C.” left out
# Biofilm harvesting and processing. […] SYTO-60 was excited with a 561 nm; 0.20% laser and emission was recorded from 580-700 nm. TOTO-1 was excited with a 488 nm; 0.20% laser and emission was recorded from 490 to 580 nm.
row,Molecule,effect on Δphz* biofilms under PYO-reductive conditions (in words)
1,gentamicin,did not affect Δphz* biofilms; also recorded: had no effect on the survival of Δphz* biofilms

# Test system: PA14
# Assay: Reduction of redox-active compound by PA14 (Table 4)
# Type: cell-based, P. aeruginosa
# Settings: not given
# Excerpt: as §2
row,Molecule,Reduction by PA14?
1,"Oc1cccc2nc3ccccc3nc12 [1-Hydroxyphenazine (1-OHPHZ), 1-Hydroxyphenazine]",Yes
2,"O=C(O)c1cccc2nc3ccccc3nc12 [Phenazine-1-carboxylate (PCA), Phenazine-1-carboxylate]",Yes
